The record followed here is patent US20240148744A1 (Celgene Corporation, priority 2021, published 2024).

Each structure is given as a SMILES string. Bounds are passed on as bounds.

The assay concerns Onchocerca gutturosa adult male worms. Briefly: Onchocerca gutturosa in vitro screening model: adult worm motility score and MTT/formazan viability. Conditions: read-out: O. gutt Activity class. It counts as cell-based.
Take `O=S(=O)(Nc1cccc2cccnc12)c1ccc(F)cc1F` [Compound 275, 2,4-difluoro-N-(quinolin-8-yl)benzene-sulfonamide]: the IC50 lay within 200 to 500 nM. Turning to `O=S(=O)(Nc1cccc2cccnc12)c1nnc2ccccn12` [Compound 201, N-(quinolin-8-yl)-[1,2,4]triazolo [4,3-a]pyridine-3-sulfonamide], the IC50 was 500 to 5000 nM. The result for `CCn1ccnc1S(=O)(=O)Nc1ccc(OC)c2cccnc12` [Compound 57, 1-ethyl-N-(5-methoxyquin-olin-8-yl)-1H-imidazole-2-sulfonamide] reads 500 to 5000 nM; that for `Cc1cccnc1S(=O)(=O)Nc1cccc2c1N(C)CC2` [Compound 44, 3-methyl-N-(1-methyl-indolin-7-yl)-pyridine-2-sulfonamide], 500 to 5000 nM; that for `O=S(=O)(Nc1cccc2cccnc12)c1c[nH]c2ncccc12` [Compound 204, N-(quinolin-8-yl)-1H-pyrrolo[2,3-b]pyridine-3-sulfonamide], 500 to 5000 nM.

As to `O=S(=O)(Nc1cccc2cccnc12)c1ccccc1C(F)(F)F` [Compound 274, N-(quinolin-8-yl)-2-(trifluoromethyl) benzene-sulfonamide], the IC50 is under 200 nM.

In the case of `Cc1ccc(S(=O)(=O)Nc2cccc3cc(C)cnc23)cc1` [Compound 96, 4-methyl-N-(3-methyl-quinolin-8-yl)benzene-sulfonamide], the IC50 is under 200 nM. To `N#Cc1ccnc(S(=O)(=O)Nc2c(Cl)ccc3cccnc23)c1` [Compound 71, N-(7-chloro-quinolin-8-yl)-4-cyano-pyridine-2-sulfonamide] belongs under 200 nM; to `O=S(=O)(Nc1cccc2cccnc12)c1ncccc1O` [Compound 219, 3-hydroxy-N-(quinolin-8-yl)pyridine-2-sulfonamide], 500 to 5000 nM. For `O=S(=O)(Nc1cccc2cccnc12)c1ccc(F)cn1` [Compound 247, 5-fluoro-N-(quinolin-8-yl)pyridine-2-sulfonamide], the IC50 was under 200 nM. As to `CC(C)n1nccc1S(=O)(=O)Nc1cccc2c1CN(C1CC1)C2` [Compound 40, N-(2-cyclo-propyliso-indolin-4-yl)-1-isopropyl-1H-pyrazole-5-sulfonamide], the IC50 fell in the range of 500 to 5000 nM. To `O=S(=O)(Nc1cccc2cccnc12)c1cccnc1` [Compound 277, N-(quinolin-8-yl)pyridine-3-sulfonamide] belongs 500 to 5000 nM; to `O=S(=O)(Nc1ccnc2cccnc12)c1ccccn1` [Compound 203, N-(1,5-naphthyridin-4-yl)pyridine-2-sulfonamide], 500 to 5000 nM. `O=S(=O)(Nc1ccc2cccnc2c1)c1ccccn1` [Compound 262, N-(quinolin-7-yl)pyridine-2-sulfonamide]: the IC50 is 500 to 5000 nM. For `Cc1cccnc1S(=O)(=O)Nc1cncc2cccnc12` [Compound 194, 3-methyl-N-(1,6-naphthyridin-8-yl)pyridine-2-sulfonamide], the IC50 lay within 200 to 500 nM. The result for `O=S(=O)(Nc1cccc2cccnc12)c1ccc(-c2cnco2)nc1` [Compound 172, 6-(oxazol-5-yl)-N-(quinolin-8-yl)pyridine-3-sulfonamide] reads 500 to 5000 nM; that for `COc1ccc(NS(=O)(=O)c2ccco2)c2ncccc12` [Compound 60, N-(5-meth-oxyquinolin-8-yl)furan-2-sulfonamide], 500 to 5000 nM; that for `Cc1nccnc1S(=O)(=O)Nc1c(Cl)ccc2cccnc12` [Compound 70, N-(7-chloro-quinolin-8-yl)-3-methyl-pyrazine-2-sulfonamide], 500 to 5000 nM. To `N#Cc1cccc(S(=O)(=O)Nc2cccc3cccnc23)n1` [Compound 162, 6-cyano-N-(quinolin-8-yl)pyridine-2-sulfonamide] belongs 500 to 5000 nM; to `O=S(=O)(Nc1cccc2cccnc12)c1ccncn1` [Compound 199, N-(quinolin-8-yl)pyrimidine-4-sulfonamide], 500 to 5000 nM.

As for `O=S(=O)(Nc1cccc2cccnc12)N1CCCCC1` [Compound 205, N-(quinolin-8-yl)piperidine-1-sulfonamide], the IC50 was in the range of 500 to 5000 nM. To `Cc1ccc(S(=O)(=O)Nc2cc(F)c(F)c3cccnc23)cc1` [Compound 136, N-(5,6-difluoroquin-olin-8-yl)-4-methylben-zenesulfon-amide] belongs 200 to 500 nM; to `O=S(=O)(Nc1cccc2cccnc12)c1ncccc1C1CC1` [Compound 214], 200 to 500 nM; to `O=S(=O)(Nc1cc(C2CCCCC2)cc2cccnc12)c1ccccn1` [Compound 131, N-(6-cyclo-hexylquinolin-8-yl)pyridine-2-sulfonamide], 500 to 5000 nM. The result for `O=S(=O)(Nc1cccc2cccnc12)c1ccc(Cl)cn1` [Compound 259, 5-chloro-N-(quinolin-8-yl)pyridine-2-sulfonamide] reads 500 to 5000 nM. To `CCn1c(S(=O)(=O)Nc2cccc3cccnc23)nc(C)c1C` [Compound 226, 1-ethyl-4,5-dimethyl-N-(quinolin-8-yl)-1H-imidazole-2-sulfonamide] belongs under 200 nM; to `COc1cc(OC)cc(S(=O)(=O)Nc2cc(F)cc3cccnc23)c1` [Compound 128, N-(6-fluoro-quinolin-8-yl)-3,5-dimethoxy-benzenesulfon-amide], under 200 nM; to `O=S(=O)(Nc1cccc2cccnc12)c1ncc[nH]1` [Compound 243, N-(quinolin-8-yl)-1H-imidazole-2-sulfonamide], 500 to 5000 nM. Turning to `O=S(=O)(Nc1cccc2cccnc12)c1cccc(-c2ccccc2)n1` [Compound 161, 6-phenyl-N-(quinolin-8-yl)pyridine-2-sulfonamide], the IC50 lay in the range of 500 to 5000 nM. The result for `CCc1ccc(NS(=O)(=O)c2nccn2C)c2ncccc12` [Compound 130, N-(5-ethyl-quinolin-8-yl)-1-methyl-1H-imidazole-2-sulfonamide] reads 500 to 5000 nM. To `Cc1cccnc1S(=O)(=O)Nc1cccc2c1CN(C1CC1)CC2` [Compound 36, N-(2-cyclo-propyl-1,2,3,4-tetra-hydroisoquin-olin-8-yl)-3-methylpyr-idine-2-sulfonamide] belongs 500 to 5000 nM; to `Cc1cccnc1S(=O)(=O)Nc1cccc2ccc(N3CCC3)nc12` [Compound 23, N-(2-(azet-idin-1-yl)-quinolin-8-yl)-3-meth-ylpyridine-2-sulfonamide], 500 to 5000 nM. Consider `Cn1ccnc1S(=O)(=O)Nc1cccc2cccnc12` [Compound 251, 1-methyl-N-(quinolin-8-yl)-1H-imidazole-2-sulfonamide], for which the IC50 is under 200 nM. The result for `Cc1ccc(NS(=O)(=O)c2ccco2)c2ncccc12` [Compound 65, N-(5-methyl-quinolin-8-yl)furan-2-sulfonamide] reads 500 to 5000 nM. `O=S(=O)(Nc1cccc2cncnc12)c1ccccn1` [Compound 202, N-(quinazolin-8-yl)pyridine-2-sulfonamide]: the IC50 was in the range of 500 to 5000 nM. The result for `Cc1nc(C(F)(F)F)ccc1S(=O)(=O)Nc1cccc2cccnc12` [Compound 173, 2-methyl-N-(quinolin-8-yl)-6-(trifluoromethyl) pyridine-3-sulfonamide] reads 500 to 5000 nM; that for `N#Cc1cccc(S(=O)(=O)Nc2c(Cl)ccc3cccnc23)c1` [Compound 82, N-(7-chloro-quinolin-8-yl)-3-cyano-benzene sulfonamide], 500 to 5000 nM; that for `Cc1cccnc1S(=O)(=O)Nc1cccc2c1NCCC2` [Compound 56, 3-methyl-N-(1,2,3,4-tetra-hydroquinolin-8-yl)pyridine-2-sulfonamide], 500 to 5000 nM.

Turning to `Cc1cc(C)cc(S(=O)(=O)Nc2cc(F)cc3cccnc23)c1` [Compound 91, N-(6-fluoro-quinolin-8-yl)-3,5-dimethyl-benzene-sulfonamide], the IC50 is under 200 nM.

On to `O=S(=O)(Nc1cccc2cccnc12)c1ccc(Cl)cc1` [Compound 285, 4-chloro-N-(quinolin-8-yl)benzene-sulfonamide], for which the IC50 was under 200 nM.

For `Cn1ccc(S(=O)(=O)Nc2cccc3cccnc23)n1` [Compound 255, 1-methyl-N-(quinolin-8-yl)-1H-pyrazole-3-sulfonamide], the IC50 lay within 200 to 500 nM. Regarding `COc1cncc(S(=O)(=O)Nc2c(Cl)ccc3cccnc23)n1` [Compound 81, N-(7-chloro-quinolin-8-yl)-6-meth-oxypyrazine-2-sulfonamide], the IC50 was 500 to 5000 nM. To `Cc1nc(S(=O)(=O)Nc2cccc3cccnc23)c(C#N)c(C)c1Cl` [Compound 175, 5-chloro-3-cyano-4,6-dimethyl-N-(quinolin-8-yl)pyridine-2-sulfonamide] belongs 200 to 500 nM; to `Cc1ccnc(S(=O)(=O)Nc2cccc3cccnc23)c1` [Compound 234, 4-methyl-N-(quinolin-8-yl)pyridine-2-sulfonamide], under 200 nM. To `Cn1cc(S(=O)(=O)Nc2ccc(F)c3cccnc23)cn1` [Compound 59, N-(5-fluoro-quinolin-8-yl)-1-meth-yl-1H-pyr-azole-4-sulfonamide] belongs 500 to 5000 nM.

`Cc1ccc(S(=O)(=O)Nc2cc(C)cc3cccnc23)cc1` [Compound 93, 4-methyl-N-(6-methyl-quinolin-8-yl)benzene-sulfonamide]: the IC50 fell in the range of 200 to 500 nM. The result for `Cc1cnc(S(=O)(=O)Nc2cccc3cccnc23)nc1` [Compound 198, 5-methyl-N-(quinolin-8-yl)pyrimidine-2-sulfonamide] reads 200 to 500 nM.

For `Cc1ccc(S(=O)(=O)Nc2cccc3cccnc23)cc1C` [Compound 273, 3,4-dimethyl-N-(quinolin-8-yl)benzenesulfon-amide], the IC50 is under 200 nM.

As for `Cc1cccnc1S(=O)(=O)Nc1cccc2c1CN(C)CC2` [Compound 43, 3-methyl-N-(2-methyl-1,2,3,4-tetra-hydroisoquin-olin-8-yl)pyr-idine-2-sulfonamide], the IC50 is under 200 nM.

Turning to `O=S(=O)(Nc1cccc2cccnc12)c1cccc(F)c1` [Compound 283, 3-fluoro-N-(quinolin-8-yl)benzene-sulfonamide], the IC50 lay within 200 to 500 nM. The result for `O=S(=O)(Nc1cccc2cccnc12)c1ccc(Cl)cc1Cl` [Compound 278, 2,4-dichloro-N-(quinolin-8-yl)benzene-sulfonamide] reads 200 to 500 nM.
